From patent publication EP4477653A1 (Perha Pharmaceuticals, priority 2023, dated 2024) come the findings set out here.

For the experiment, the target named is T1, human recombinant A3AR (expressed in HEK-293 cells) (Homo sapiens, UniProt P0DMS8).
T1 construct: host or cells: HEK-293 cells
T1 sequence (P0DMS8 1-318): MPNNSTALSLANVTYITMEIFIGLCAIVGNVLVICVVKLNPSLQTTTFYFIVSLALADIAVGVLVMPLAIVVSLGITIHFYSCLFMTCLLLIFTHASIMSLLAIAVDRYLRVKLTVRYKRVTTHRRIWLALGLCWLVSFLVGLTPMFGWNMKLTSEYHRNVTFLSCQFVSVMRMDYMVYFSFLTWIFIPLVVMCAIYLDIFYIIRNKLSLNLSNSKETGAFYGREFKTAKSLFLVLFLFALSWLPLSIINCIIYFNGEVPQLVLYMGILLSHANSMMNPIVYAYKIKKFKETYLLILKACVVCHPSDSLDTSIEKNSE
Nature of the experiment: Adenosine receptors antagonism assay (Eurofins), [125I]-AB-MECA radioligand competition. The experiment is classed as binding. The settings on record: [125I]-AB-MECA 0.15 nM, r.t., 120 min; IC50 from dose-response curves; read-out: Potency Class A3AR. On the technique in general: In a radioligand displacement assay an active substance lowers the binding of a labelled ligand.

Structures are written as SMILES.

As for `COCCNc1cc(NCCOC)c2nnc(C(C)C)n2n1` [compound 112, 3-isopropyl-N6,N8-bis(2-methoxyethyl)-[1,2,4]triazolo[4,3-b]pyridazine-6,8-diamine], the IC50 lay in the range of 100 to 1000 nM.
Take `CC[C@H](CO)Nc1cc(N[C@H](CC)CO)c2nnc(C(C)C)n2n1` [compound 113, (2R)-2-[[6-[[(1R)-1-(hydroxymethyl)propyl]amino]-3-isopropyl-[1,2,4]triazolo[4,3-b]pyridazin-8-yl]amino]butan-1-ol]: the IC50 was 100 to 1000 nM.
With `CCC(CC)Nc1cc(NC(CC)CC)c2nnc(C(C)C)n2n1` [compound 114, N6,N8-bis(1-ethylpropyl)-3-isopropyl-[1,2,4]triazolo[4,3-b]pyridazine-6,8-diamine], the IC50 was 1 to 10 nM.
On to `CC[C@H](CO)Nc1nn2c(C(C)C)nnc2c(NCc2ccccc2)c1C` [compound 115, (2R)-2-[[8-(benzylamino)-3-isopropyl-7-methyl-[1,2,4]triazolo[4,3-b]pyridazin-6-yl]amino]butan-1-ol], for which the IC50 lay in the range of 100 to 1000 nM.
For the compound `CNc1cc(NCc2ccc(Br)cc2)c2nnc(C(C)C)n2n1` [compound 116, N8-[(4-bromophenyl)methyl]-3-isopropyl-N6-methyl-[1,2,4]triazolo[4,3-b]pyridazine-6,8-diamine], the IC50 lay in the range of 100 to 1000 nM.
Under `CCC(CC)CNc1cc(Nc2cccnn2)c2nnc(C(C)C)n2n1` [compound 147, N6-(2-ethylbutyl)-3-isopropyl-N8-(pyridazin-3-yl)-[1,2,4]triazolo[4,3-b]pyridazine-6,8-diamine] stands less than 1 nM.
With `CCC(CC)Nc1cc(Nc2cccnn2)c2nnc(C(C)C)n2n1` [compound 148, 3-isopropyl-N6-(pentan-3-yl)-N8-(pyridazin-3-yl)-[1,2,4]triazolo[4,3-b]pyridazine-6,8-diamine], the IC50 was less than 1 nM.
With `CCC(CC)Nc1cc(Nc2ccnnc2)c2nnc(C(C)C)n2n1` [compound 149, 3-isopropyl-N6-(pentan-3-yl)-N8-(pyridazin-4-yl)-[1,2,4]triazolo[4,3-b]pyridazine-6,8-diamine], the IC50 was 1 to 10 nM.
On to `CCC(CC)Nc1cc(Nc2ccncn2)c2nnc(C(C)C)n2n1` [compound 150, 3-isopropyl-N6-(pentan-3-yl)-N8-(pyrimidin-4-yl)-[1,2,4]triazolo[4,3-b]pyridazine-6,8-diamine], for which the IC50 is less than 1 nM.
For the compound `CCC(CC)Nc1cc(Nc2cncnc2)c2nnc(C(C)C)n2n1` [compound 151, 3-isopropyl-N6-(pentan-3-yl)-N8-(pyrimidin-5-yl)-[1,2,4]triazolo[4,3-b]pyridazine-6,8-diamine], the IC50 is less than 1 nM.
Turning to `CCC(CC)Nc1cc(Nc2ncccn2)c2nnc(C(C)C)n2n1` [compound 152, 3-isopropyl-N6-(pentan-3-yl)-N8-(pyrimidin-2-yl)-[1,2,4]triazolo[4,3-b]pyridazine-6,8-diamine], the IC50 lay in the range of 10 to 100 nM.
As for `CCC(CC)Nc1cc(Nc2cnccn2)c2nnc(C(C)C)n2n1` [compound 153, 3-isopropyl-N6-(pentan-3-yl)-N8-(pyrazin-2-yl)-[1,2,4]triazolo[4,3-b]pyridazine-6,8-diamine], the IC50 was less than 1 nM.
As for `CCC(CC)Nc1cc(Nc2cccc(OC)n2)c2nnc(C(C)C)n2n1` [compound 154, 3-isopropyl-N8-(6-methoxypyridin-2-yl)-N6-(pentan-3-yl)-[1,2,4]triazolo[4,3-b]pyridazine-6,8-diamine], the IC50 was less than 1 nM.
To `CCC(CC)Nc1cc(Nc2ccc(OC)cn2)c2nnc(C(C)C)n2n1` [compound 155, 3-isopropyl-N8-(5-methoxypyridin-2-yl)-N6-(pentan-3-yl)-[1,2,4]triazolo[4,3-b]pyridazine-6,8-diamine] belongs less than 1 nM; to `CCC(CC)Nc1cc(Nc2cc(OC)ccn2)c2nnc(C(C)C)n2n1` [compound 156, 3-isopropyl-N8-(4-methoxypyridin-2-yl)-N6-(pentan-3-yl)-[1,2,4]triazolo[4,3-b]pyridazine-6,8-diamine], 1 to 10 nM.
